The series is described as follows: recombinant UMI read abundance after kanamycin selection (control-corrected) (log10(CPM+1)); higher = more efficient recombination; extreme values may be limits of the assay; sequences stand for … in AGTGCAGAGAAAATCGGCCAGTTTTCTCTGCCTGCAGTCCGCATGCCGTGGGACCCCTTGGGTTCTAACCTGTTGCCTAGATTTATGCAGCGGACTGCCTTTCTCCCAAAGTGATAAACCGG…AGGTTGGTTTCACT; site = the 11-nt donor. A digest of the protocol:
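Under IPTG (0.07 mM) plus kanamycin, or without selection, Escherichia coli carrying a UMI-tagged donor and donor-binding-loop pair library and a target plasmid for the IS621 bridge recombinase were plated in two replicates. Recombinant UMIs were PCR-amplified across the donor–target junction and sequenced. Counts were converted to CPM, averaged over replicates, scaled by control-derived factors and reported as log10(CPM+1).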
For “GACCTCACATGGACCGGTTTTCCCGGTAATCCGTATTTGAT (site GAGCTCACTAT)”, the “recombinant UMI read abundance (log10)” value stood at 0. Next, “GACCTCACATGGACCGGTTTTCCCGGTAATCCGTATTTGAT (site GATCTCACTAT)”: 0.00913; “GACCTCCCATGGACCGGTTTTCCCGGTAATCCGTATTTGTG (site GACCTCCCTCA)”: 0.00533; “GACGACGCATGGACCGGTTTTCCCGGTAATCCGTATTTGGA (site GACGACGCTTC)”: 2.48. The result for “GACGTAACATGGACCGGTTTTCCCGGTAATCCGTATTTGTA (site GACGTAACTTA)” reads 2.19; that for “GACTAGTCATGGACCGGTTTTCCCGGTAATCCGTATTTGTG (site GACTAGTCTCA)”, 1.64; that for “GACTCTTCATGGACCGGTTTTCCCGGTAATCCGTATTTGGC (site GACTCTTCTGC)”, 1.04. Regarding “GACTGGACATGGACCGGTTTTCCCGGTAATCCGTATTTGGT (site GACTGGACTAC)”, the “recombinant UMI read abundance (log10)” value worked out at 0.826.

“GACTTTGCATGGACCGGTTTTCCCGGTAATCCGTATTTGCA (site GACTTTGCTTG)”: the “recombinant UMI read abundance (log10)” value came out at 0. For the sequence “GAGATCACATGGACCGGTTTTCCCGGTAATCCGTATTTGAT (site GAGATCACTAT)”, the “recombinant UMI read abundance (log10)” value was determined as 2.13. The result for “GAGATCACATGGACCGGTTTTCCCGGTAATCCGTATTTGAT (site GAGCTCACTAT)” reads 0.00919. The result for “GAGATCACATGGACCGGTTTTCCCGGTAATCCGTATTTGAT (site GAGGTCACTAT)” reads 0.0122; that for “GAGATCACATGGACCGGTTTTCCCGGTAATCCGTATTTGAT (site GAGTTCACTAT)”, 0.113. Next, “GAGCAAGCATGGACCGGTTTTCCCGGTAATCCGTATTTGCA (site GAGCAAGCTTG)”: 2.68; “GAGCAGACATGGACCGGTTTTCCCGGTAATCCGTATTTGTG (site GAGCAGACTCA)”: 1.25; “GAGCCCACATGGACCGGTTTTCCCGGTAATCCGTATTTGAT (site GAGCACACTAT)”: 0.

In the case of “GAGCCCACATGGACCGGTTTTCCCGGTAATCCGTATTTGAT (site GAGCCCACTAT)”, the “recombinant UMI read abundance (log10)” value was 1.66.

With “GAGCCCACATGGACCGGTTTTCCCGGTAATCCGTATTTGAT (site GAGCGCACTAT)”, the “recombinant UMI read abundance (log10)” value is 0.0147. With “GAGCCCACATGGACCGGTTTTCCCGGTAATCCGTATTTGAT (site GAGCTCACTAT)”, the “recombinant UMI read abundance (log10)” value is 0.00621. The result for “GAGCGCGCATGGACCGGTTTTCCCGGTAATCCGTATTTGCG (site GAGCGCGCTCG)” reads 1.56; that for “GAGCTCACATGGACCGGTTTTCCCGGTAATCCGTATTTGGT (site GAGCTCACTAA)”, 0.274. “GAGCTCACATGGACCGGTTTTCCCGGTAATCCGTATTTGGT (site GAGCTCACTAC)”: the “recombinant UMI read abundance (log10)” value was determined as 0.841.

On to “GAGCTCACATGGACCGGTTTTCCCGGTAATCCGTATTTGGT (site GAGCTCACTAG)”, for which the “recombinant UMI read abundance (log10)” value stood at 1.37. Next, “GAGCTCACATGGACCGGTTTTCCCGGTAATCCGTATTTGGT (site GAGCTCACTAT)”: 0.971; “GAGCTCGCATGGACCGGTTTTCCCGGTAATCCGTATTTGAT (site GAGCTCACTAT)”: 1.7; “GAGCTCGCATGGACCGGTTTTCCCGGTAATCCGTATTTGAT (site GAGCTCCCTAT)”: 0.626. Next, “GAGCTCGCATGGACCGGTTTTCCCGGTAATCCGTATTTGAT (site GAGCTCGCTAT)”: 2.26; “GAGCTCGCATGGACCGGTTTTCCCGGTAATCCGTATTTGAT (site GAGCTCTCTAT)”: 1.37; “GAGGAAACATGGACCGGTTTTCCCGGTAATCCGTATTTGCT (site GAGGAAACTAG)”: 0. Next, “GAGGAACCATGGACCGGTTTTCCCGGTAATCCGTATTTGGA (site GAGGAACCTTC)”: 0.00548; “GAGGATGCATGGACCGGTTTTCCCGGTAATCCGTATTTGAA (site GAGGATGCTTT)”: 2.56; “GAGGTAGCATGGACCGGTTTTCCCGGTAATCCGTATTTGAT (site GAGGTAGCTAT)”: 2.43. For “GAGTAGCCATGGACCGGTTTTCCCGGTAATCCGTATTTGTC (site GAGTAGCCTGA)”, the “recombinant UMI read abundance (log10)” value turned out to be 0.

For “GAGTGGACATGGACCGGTTTTCCCGGTAATCCGTATTTGAC (site GAATGGACTGT)”, the “recombinant UMI read abundance (log10)” value came to 1.75.

(Values after the supplement of paper PMC11208160.)
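Further: IS621 bridge recombinase in Escherichia coli cells against a fixed T5 target plasmid.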
